Laboratory results as given in patent US8022047B2, “Combination anticancer agents” (Chugai Seiyaku Kabushiki Kaisha, priority 2005, dated 2011).
Read-outs that look alike come from different tables or passages of the source.

Tests used:
[1] = test system: human colorectal cancer HCT116 xenograft
Description: The human colorectal cancer cell line HCT116 was purchased from ATCC. Cells were monolayer cultured in McCoy's 5a medium containing 2 mM L-glutamine and 10% (v/v) fetal bovine serum.
Five-week old male athymic nude mice (BALB/c nu/nu) were purchased from Charles River Japan. The mice were reared for at least one week prior to the experiment at the animal facility of the research institute.
A single cell suspension of HCT116 (8×10^6 cells per mouse) was inoculated subcutaneously into the right side of the abdomen of each mouse. The tumor size of each mouse was measured twice a week and the tumor volume was estimated using the ab^2/2 formula (a and b refer to the length and width of the tumor, respectively). Randomization and administration pharmaceuticals were begun the day the tumor volume exceeded 100 mm^3
The dosage is as follows.
Capecitabine was dissolved and diluted in 40 mM citric acid buffer (pH6) containing 5% gum arabic.

[2] = test system: human lung cancer Calu-6 xenograft; assay: Antitumor effect in xenograft model, compound 2A plus CDDP or carboplatin (Example 4); assay type: in vivo; conditions: mice; i.v. once in a three-week period
Description: The human lung cancer cell line Calu-6 was purchased from ATCC.
CPT-11, CDDP, and carboplatin were purchased from Daiichi Pharmaceuticals, Nippon Kayaku, and Bristol-Meyers Squibb, respectively.
Compound 2A, CPT-11, CDDP, and carboplatin were dissolved and diluted in a saline solution. […] CDDP and carboplatin were intravenously administered once in a three-week period.
In one therapeutic cycle, compound 2A and CPT-11 were administered once a week for three consecutive weeks, and CDDP and carboplatin were administered once in the three-week period.

[3] = test system: human pancreatic cancer Capan-1 xenograft; conditions: mice; i.v. once a week for four consecutive weeks
Description: A single cell suspension of Capan-1 (8.4×10^6 cells per mouse) was inoculated subcutaneously into the right side of the abdomen of each mouse. The tumor size of each mouse was measured twice a week and the tumor volume was estimated using the ab^2/2 formula (a and b refer to the length and width of the tumor, respectively). Randomization and administration of pharmaceuticals were begun the day the tumor volume exceeded 100 mm^3
Gemcitabine was dissolved and diluted in physiological saline, and intravenously administered once a week for four consecutive weeks.
Gemcitabine was administered once a week for four consecutive weeks.

In the case of `CCCCCOC(=O)Nc1nc(=O)n([C@@H]2O[C@H](C)[C@@H](O)[C@H]2O)cc1F` [capecitabine], the “MTD (maximum tolerated dose)” value ([1]; mouse, in vivo, po) is reported as 360 mg/kg/injection.

For `N.N.O=C([O-])C1(C(=O)[O-])CCC1.[Pt+2]` [carboplatin], the “MTD (maximum tolerated dose)” value [2] was 50 mg/kg/injection.

In the case of `CCCCCN1C=Nc2cccc3nc4c(c1c23)Cn1c-4cc2c(c1=O)COC(=O)[C@@]2(CC)OC(=O)CN(C)C(=O)CN.Cl` [compound 2A, (9S)-9-ethyl-9-(glycyl-sarcosyloxy)-1-pentyl-1H,12H-pyrano[3″,4″:6′,7′]indolizino[1′,2′:6,5]pyrido[4,3,2-de]quinazoline-10,13(9H,15H)-dione hydrochloride], the “MTD (maximum tolerated dose)” value ([1]; mice, i.v. once during a three-week period, actually measured weight of the hydrochloride) is reported as 60 mg/kg/injection and the “MTD (maximum tolerated dose) as free base” value ([1]; mice, i.v. once during a three-week period, weight converted to free base) is reported as 47 mg/kg/injection.

`Nc1ccn([C@@H]2O[C@H](CO)[C@@H](O)C2(F)F)c(=O)n1` [gemcitabine] was tested, and the “MTD (maximum tolerated dose)” value [3] was 400 mg/kg/injection.
